Assay results published in ChEMBL document CHEMBL1201862, “PubChem BioAssay data set” (2004).
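Briefly, cells in 96-well plates were exposed to five compound concentrations for 48 h, and endpoints were estimated by linear interpolation. GI50 marks 50% less growth.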 Active and inactive are the calls of the source. Cut-off read from the data, not from the text of the source: active = GI50 up to about 1.1 µM and inactive = higher.

How the values were obtained:
Assay in all cases: NCI tumour cell line growth inhibition, 48 h
DU-145 = test system: DU-145
HCT-116 = test system: HCT-116
HL-60 = test system: HL-60
HOP-62 = test system: HOP-62
HOP-92 = test system: HOP-92
LOX IMVI = test system: LOX IMVI
MDA-MB-231 = test system: MDA-MB-231
NCI-H460 = test system: NCI-H460
NCI-H522 = test system: NCI-H522
OVCAR-4 = test system: OVCAR-4
RPMI-8226 = test system: RPMI-8226
RXF 393 = test system: RXF 393
SF-268 = test system: SF-268
SK-MEL-28 = test system: SK-MEL-28
SK-MEL-2 = test system: SK-MEL-2
SN12C = test system: SN12C
SNB-75 = test system: SNB-75
SR = test system: SR
T47D = test system: T47D
UO-31 = test system: UO-31

Compound | GI50 (DU-145) | GI50 (HCT-116) | GI50 (HL-60) | GI50 (HOP-62) | GI50 (HOP-92) | GI50 (LOX IMVI) | GI50 (MDA-MB-231) | GI50 (NCI-H460) | GI50 (NCI-H522) | GI50 (OVCAR-4) | GI50 (RPMI-8226) | GI50 (RXF 393) | GI50 (SF-268) | GI50 (SK-MEL-28) | GI50 (SK-MEL-2) | GI50 (SN12C) | GI50 (SNB-75) | GI50 (SR) | GI50 (T47D) | GI50 (UO-31)
CCOP(=O)(CC1CC(O)(CNc2cc(Cl)nc(N)n2)C1)OCC (centres undefined) | > 100 µM (inactive) | > 100 µM (inactive) | > 100 µM (inactive) | > 100 µM (inactive) | > 100 µM (inactive) | > 100 µM (inactive) | > 100 µM (inactive) | > 100 µM (inactive) | > 100 µM (inactive) | > 100 µM (inactive) | > 100 µM (inactive) | > 100 µM (inactive) | > 100 µM (inactive) | > 100 µM (inactive) | > 100 µM (inactive) | > 100 µM (inactive) | > 100 µM (inactive) | > 100 µM (inactive) | 98.9 µM (inactive) | > 100 µM (inactive)
CCN(CC)CCC1CCCCN1CC(=O)N1c2ccccc2NC(=O)CC1C (centres undefined) | > 100 µM (inactive) | > 100 µM (inactive) | > 100 µM (inactive) | > 100 µM (inactive) | > 100 µM (inactive) | > 100 µM (inactive) | > 100 µM (inactive) | > 100 µM (inactive) | > 100 µM (inactive) | > 100 µM (inactive) | > 100 µM (inactive) | > 100 µM (inactive) | > 100 µM (inactive) | > 100 µM (inactive) | > 100 µM (inactive) | > 100 µM (inactive) | 0.0933 µM (active) | > 100 µM (inactive) | > 100 µM (inactive) | > 100 µM (inactive)
O=C(NCCNCCNCCNC(=O)c1cc(-c2ccccc2)nc2ccccc12)c1cc(-c2ccccc2)nc2ccccc12 | 3.24 µM (inactive) | 1.88 µM (inactive) | 1.74 µM (inactive) | 2.51 µM (inactive) | 1.92 µM (inactive) | 1.56 µM (inactive) | 2.96 µM (inactive) | 1.79 µM (inactive) | 1.67 µM (inactive) | 3.43 µM (inactive) | 2.45 µM (inactive) | 2.02 µM (inactive) | 3.4 µM (inactive) | 1.7 µM (inactive) | 1.54 µM (inactive) | 3.07 µM (inactive) | 1.78 µM (inactive) | 2.02 µM (inactive) | 2.68 µM (inactive) | 6.9 µM (inactive)
CC(C)(Cl)C(Cl)CC/C(CBr)=C(\Cl)CCl (centres undefined) | 13.4 µM (inactive) | 3.93 µM (inactive) | 0.582 µM (active) | 11.8 µM (inactive) | 10.4 µM (inactive) | 0.406 µM (active) | 2.57 µM (inactive) | 12.7 µM (inactive) | 0.658 µM (active) | 2.79 µM (inactive) | 1.89 µM (inactive) | 10.6 µM (inactive) | 7.8 µM (inactive) | 2.92 µM (inactive) | 2.47 µM (inactive) | 3.52 µM (inactive) | 4.45 µM (inactive) | 0.485 µM (active) | 1.82 µM (inactive) | 6.53 µM (inactive)
CCOC(=O)c1sc2[n+](c1C)C(=O)/C(=C/c1ccccc1Cl)S2 | 1.85 µM (inactive) | 0.627 µM (active) | 4.12 µM (inactive) | 1.61 µM (inactive) | 5.9 µM (inactive) | 0.851 µM (active) | 3.06 µM (inactive) | 0.65 µM (active) | 0.532 µM (active) | 33.3 µM (inactive) | 0.54 µM (active) | 15.3 µM (inactive) | 3.58 µM (inactive) | 9.75 µM (inactive) | 9.35 µM (inactive) | 14.3 µM (inactive) | 0.425 µM (active) | 0.394 µM (active) | 15.3 µM (inactive) | 0.684 µM (active)
CN1C(c2ccccc2)=CC(=O)C(O)=C(c2ccccc2)S1(=O)=O | > 100 µM (inactive) | > 100 µM (inactive) | > 100 µM (inactive) | > 100 µM (inactive) | > 100 µM (inactive) | > 100 µM (inactive) | > 100 µM (inactive) | > 100 µM (inactive) | > 100 µM (inactive) | > 100 µM (inactive) | > 100 µM (inactive) | > 100 µM (inactive) | > 100 µM (inactive) | > 100 µM (inactive) | > 100 µM (inactive) | > 100 µM (inactive) | > 100 µM (inactive) | > 100 µM (inactive) | > 100 µM (inactive) | > 100 µM (inactive)
Nc1nc(N)c2nc(CN(C=O)c3ccc(C(=O)O)cc3)cnc2n1 | 7.38 µM (inactive) | 3.84 µM (inactive) | 18.8 µM (inactive) | 14 µM (inactive) | > 100 µM (inactive) | 4.27 µM (inactive) | > 100 µM (inactive) | 7.55 µM (inactive) | 0.438 µM (active) | > 100 µM (inactive) | 14.7 µM (inactive) | > 100 µM (inactive) | 9.68 µM (inactive) | > 100 µM (inactive) | > 100 µM (inactive) | 52.6 µM (inactive) | > 52.1 µM (inactive) | 10.1 µM (inactive) | > 100 µM (inactive) | > 22.3 µM (inactive)
CCN(CC)CCC1CCCCN1CC(=O)N1c2ccccc2NC(=O)c2ccccc21 (centres undefined) | > 100 µM (inactive) | > 100 µM (inactive) | > 100 µM (inactive) | > 100 µM (inactive) | > 100 µM (inactive) | > 100 µM (inactive) | > 100 µM (inactive) | > 100 µM (inactive) | > 100 µM (inactive) | > 100 µM (inactive) | > 100 µM (inactive) | > 100 µM (inactive) | > 100 µM (inactive) | > 100 µM (inactive) | > 100 µM (inactive) | > 100 µM (inactive) | 6.11 µM (inactive) | > 100 µM (inactive) | > 100 µM (inactive) | > 100 µM (inactive)
O=C(O)[C@H](c1ccccc1)[C@@H](C(=O)O)c1ccccc1 | > 100 µM (inactive) | > 100 µM (inactive) | 0.228 µM (active) | > 100 µM (inactive) | > 100 µM (inactive) | > 100 µM (inactive) | > 100 µM (inactive) | > 100 µM (inactive) | > 100 µM (inactive) | > 100 µM (inactive) | > 100 µM (inactive) | > 100 µM (inactive) | > 100 µM (inactive) | > 100 µM (inactive) | > 100 µM (inactive) | > 100 µM (inactive) | > 100 µM (inactive) | > 100 µM (inactive) | > 100 µM (inactive) | > 100 µM (inactive)
C#CCNC(CCCNC(=N)N)C(=O)O (centres undefined) | > 100 µM (inactive) | > 100 µM (inactive) | > 100 µM (inactive) | > 100 µM (inactive) | > 100 µM (inactive) | > 100 µM (inactive) | > 100 µM (inactive) | > 100 µM (inactive) | > 100 µM (inactive) | > 100 µM (inactive) | > 100 µM (inactive) | > 100 µM (inactive) | > 100 µM (inactive) | > 100 µM (inactive) | > 100 µM (inactive) |  | > 100 µM (inactive) | > 100 µM (inactive) | > 100 µM (inactive) | > 100 µM (inactive)
